According to patent US8686044B2, “Amide derivative, pest control agent containing the amide derivative, and use of the amide derivative” (Mitsui Chemicals Agro, Inc., priority 2008, dated 2014):

Legend:
Assay type in all cases: in vivo
Spodoptera litura = assay: Pesticidal test against Spodoptera litura (cabbage leaf dip); conditions: foliar, 144 h, concentration 1 ppm, 2-stage larvae, examined after 6 days, 25° C., read-out: pesticidal rate
Procedure, shortened: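 Cabbage leaf pieces dipped 30 seconds in compound solution at a predetermined concentration and air-dried, then offered to second-stage larvae, five per group in two replicates. Held at 25° C. Living and dead larvae counted after 6 days.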

Laodelphax striatellus = assay: Pesticidal test against Laodelphax striatellus (rice seedling spray); conditions: 144 h, concentration 100 ppm, 3-stage larvae, examined after 6 days, 25° C., read-out: pesticidal rate
Procedure, shortened: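 Rice seedlings sprayed with 2.5 ml acetone solution of compound at a predetermined concentration, air-dried, then infested with third-stage Laodelphax striatellus larvae in capped water-containing tubes at 25 °C. Living and dead insects counted after 6 days; ten larvae per group, two replicates.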

Plutella xylostella = assay: Pesticidal test against Plutella xylostella (cabbage leaf dip); conditions: foliar, 144 h, concentration 1 ppm, 2-stage larvae, examined after 6 days, 25° C., read-out: pesticidal rate
Procedure, shortened: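 Cabbage leaf pieces dipped 30 s in test solution at a predetermined concentration, air-dried, then offered to 2nd-instar larvae, five per group in duplicate. Held at 25° C; living and dead larvae counted after 6 days.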

Musca domestica = assay: Pesticidal test against Musca domestica (petri dish dry film); conditions: 24 h, concentration 100 ppm, female adults, examined after 1 day, 25° C., read-out: pesticidal rate
Procedure, shortened: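 Dry film from 1 ml acetone solution of compound at a predetermined concentration, air-dried in a 9 cm petri dish; female adult flies released and dish capped. Held at 25° C; living and dead counted after 1 day. Five insects per group, two replicates.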

Blattella germanica = assay: Pesticidal test against Blattella germanica (petri dish dry film); conditions: 24 h, concentration 100 ppm, female adults, examined after 1 day, 25° C., read-out: pesticidal rate
Description: Pesticidal Test against Blattella germanica
1 ml of an acetone solution in which a test compound had been prepared at a predetermined concentration was added dropwise to a petri dish having a diameter of 9 cm, and air-dried, and then the female adults of Blattella germanica were released and the petri dish was capped. They were left to stand in a thermostatic chamber at 25° C., and the numbers of the living pests and the dead pests were examined after 1 day. The test was carried out with five larvae per group in two replicates.

Choristoneura magnanima = assay: Pesticidal test against Choristoneura magnanima (artificial feed dip); conditions: 144 h, concentration 1 ppm, 2-stage larvae, examined after 6 days, 25° C., read-out: pesticidal rate
Description: Pesticidal Test against Choristoneura magnanima A thinly sliced artificial feed was immersed for 30 seconds in a chemical solution in which a test compound had been prepared at a predetermined concentration, and air-dried, and then put into a 7 cm polyethylene cup having a filter paper laid on the bottom thereof, and 2-stage larvae of Choristoneura magnanima were released. They were left to stand in a thermostatic chamber at 25° C., and the numbers of the living pests and the dead pests were examined after 6 days. The test was carried out with five larvae per group in two replicates. Further, the above compound (A) was used as a comparative compound.

Adoxophyes honmai = assay: Pesticidal test against Adoxophyes honmai (artificial feed dip); conditions: 144 h, 2-stage larvae, examined after 6 days, 25° C., read-out: pesticidal rate; for pest or weed control at 1 ppm: concentration 1 ppm
Procedure, shortened: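 Thin artificial feed slices dipped 30 s in test solution at a predetermined concentration, air-dried, then offered to 2nd-stage larvae. Kept at 25° C; live and dead larvae counted after 6 days. Five larvae per group, two replicates.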

Helicoverpa armigera = assay: Pesticidal test against Helicoverpa armigera (cabbage leaf disk dip); conditions: foliar, 72 h, concentration 1 ppm, 2-stage larvae, examined after 3 days, 25° C., read-out: pesticidal rate
Procedure, shortened: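 Cabbage leaf disks were dipped for 30 s in test solution at a set concentration and air-dried. Second-instar larvae were placed one per hole and held at 25 °C, with live and dead counts taken after 3 days. Five larvae per group were tested in two replicates.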

CN(C(=O)c1ccc(Cl)nc1)c1cccc(C(=O)Nc2c(I)cc(C(F)(C(F)(F)F)C(F)(F)C(F)(F)F)cc2I)c1F (stereo not drawn) [7-1381]
≥ 70%: pest or weed control at 1 ppm (Spodoptera litura) | pest or weed control at 100 ppm (Laodelphax striatellus) | pest or weed control at 1 ppm (Plutella xylostella) | pest or weed control at 100 ppm (Musca domestica) | pest or weed control at 100 ppm (Blattella germanica)

O=C(Nc1cccc(C(=O)Nc2c(I)cc(C(F)(C(F)(F)F)C(F)(F)C(F)(F)F)cc2I)c1F)c1ccccc1 (stereo not drawn) [6-1338]
≥ 70%: pest or weed control at 1 ppm (Spodoptera litura) | pest or weed control at 100 ppm (Laodelphax striatellus) | pest or weed control at 1 ppm (Plutella xylostella) | pest or weed control at 100 ppm (Musca domestica) | pest or weed control at 100 ppm (Blattella germanica)

O=C(Nc1cccc(C(=O)Nc2c(I)cc(C(F)(C(F)(F)F)C(F)(F)F)cc2I)c1F)c1cccnc1Cl [6-1296]
≥ 70%: pest or weed control at 1 ppm (Spodoptera litura) | pest or weed control at 100 ppm (Laodelphax striatellus) | pest or weed control at 1 ppm (Plutella xylostella) | pest or weed control at 100 ppm (Blattella germanica)

O=C(Nc1c(Br)cc(C(F)(C(F)(F)F)C(F)(F)C(F)(F)F)cc1C(F)(F)F)c1cccc(NC(=O)c2c(F)cccc2F)c1 (stereo not drawn) [6-368]
≥ 70%: pest or weed control at 1 ppm (Spodoptera litura) | pest or weed control at 100 ppm (Laodelphax striatellus) | pest or weed control at 1 ppm (Plutella xylostella) | pest or weed control at 100 ppm (Musca domestica) | pest or weed control at 100 ppm (Blattella germanica)

CN(C(=O)c1ccccc1F)c1cccc(C(=O)Nc2c(I)cc(C(F)(C(F)(F)F)C(F)(F)F)cc2I)c1F [7-1261]
≥ 70%: pest or weed control at 1 ppm (Spodoptera litura) | pest or weed control at 100 ppm (Laodelphax striatellus) | pest or weed control at 1 ppm (Plutella xylostella) | pest or weed control at 100 ppm (Blattella germanica)

CN(C(=O)c1ccccc1F)c1cccc(C(=O)Nc2c(Br)cc(C(F)(C(F)(F)F)C(F)(F)F)cc2Br)c1F [7-1105]
≥ 70%: pest or weed control at 1 ppm (Spodoptera litura) | pest or weed control at 100 ppm (Laodelphax striatellus) | pest or weed control at 1 ppm (Plutella xylostella) | pest or weed control at 100 ppm (Musca domestica) | pest or weed control at 100 ppm (Blattella germanica)

O=C(Nc1cccc(C(=O)Nc2c(I)cc(C(F)(C(F)(F)F)C(F)(F)F)cc2C(F)(F)F)c1F)c1ccccc1F [6-1731]
≥ 70%: pest or weed control at 1 ppm (Spodoptera litura) | pest or weed control at 100 ppm (Laodelphax striatellus) | pest or weed control at 1 ppm (Plutella xylostella) | pest or weed control at 100 ppm (Musca domestica) | pest or weed control at 100 ppm (Blattella germanica)

CN(C(=O)c1c(F)cccc1F)c1cccc(C(=O)Nc2c(Br)cc(C(F)(C(F)(F)F)C(F)(F)F)cc2C(F)(F)F)c1F [7-1596]
≥ 70%: pest or weed control at 1 ppm (Spodoptera litura) | pest or weed control at 100 ppm (Laodelphax striatellus) | pest or weed control at 1 ppm (Plutella xylostella) | pest or weed control at 100 ppm (Musca domestica) | pest or weed control at 100 ppm (Blattella germanica)

CN(C(=O)c1c(F)cccc1F)c1cccc(C(=O)Nc2c(I)cc(C(F)(C(F)(F)F)C(F)(F)F)cc2C(F)(F)F)c1 [7-446]
≥ 70%: pest or weed control at 1 ppm (Spodoptera litura) | pest or weed control at 100 ppm (Laodelphax striatellus) | pest or weed control at 1 ppm (Plutella xylostella) | pest or weed control at 100 ppm (Musca domestica) | pest or weed control at 100 ppm (Blattella germanica)

O=C(Nc1c(Br)cc(C(F)(C(F)(F)F)C(F)(F)C(F)(F)F)cc1Br)c1cccc(NC(=O)c2c(F)cccc2F)c1F (stereo not drawn) [6-1204]
≥ 70%: pest or weed control at 1 ppm (Spodoptera litura) | pest or weed control at 100 ppm (Laodelphax striatellus) | pest or weed control at 1 ppm (Plutella xylostella) | pest or weed control at 100 ppm (Musca domestica) | pest or weed control at 100 ppm (Blattella germanica)

N#Cc1cccc(C(=O)Nc2cccc(C(=O)Nc3c(Br)cc(C(F)(C(F)(F)F)C(F)(F)F)cc3Br)c2F)c1 [6-1124]
≥ 70%: pest or weed control at 1 ppm (Spodoptera litura) | pest or weed control at 100 ppm (Laodelphax striatellus) | pest or weed control at 1 ppm (Plutella xylostella) | pest or weed control at 100 ppm (Musca domestica) | pest or weed control at 100 ppm (Blattella germanica)

CN(C(=O)c1ccccc1F)c1cccc(C(=O)Nc2c(Br)cc(C(F)(C(F)(F)F)C(F)(F)C(F)(F)F)cc2C(F)(F)F)c1 (stereo not drawn) [7-347]
≥ 70%: pest or weed control at 1 ppm (Spodoptera litura) | pest or weed control at 1 ppm (Plutella xylostella) | pest or weed control at 100 ppm (Blattella germanica)

CN(C(=O)c1cccnc1Cl)c1cccc(C(=O)Nc2c(I)cc(C(F)(C(F)(F)F)C(F)(F)F)cc2C(F)(F)F)c1F [7-1766]
≥ 70%: pest or weed control at 1 ppm (Spodoptera litura) | pest or weed control at 100 ppm (Laodelphax striatellus) | pest or weed control at 1 ppm (Plutella xylostella) | pest or weed control at 100 ppm (Musca domestica) | pest or weed control at 100 ppm (Blattella germanica)

CN(C(=O)c1ccc(F)cc1)c1cccc(C(=O)Nc2c(Br)cc(C(F)(C(F)(F)F)C(F)(F)C(F)(F)F)cc2C(F)(F)F)c1 (stereo not drawn) [7-349]
≥ 70%: pest or weed control at 1 ppm (Spodoptera litura) | pest or weed control at 1 ppm (Plutella xylostella) | pest or weed control at 100 ppm (Musca domestica) | pest or weed control at 100 ppm (Blattella germanica)

N#Cc1ccc(C(=O)Nc2cccc(C(=O)Nc3c(Br)cc(C(F)(C(F)(F)F)C(F)(F)F)cc3Br)c2F)cc1 [6-1125]
≥ 70%: pest or weed control at 1 ppm (Spodoptera litura) | pest or weed control at 1 ppm (Plutella xylostella) | pest or weed control at 100 ppm (Musca domestica) | pest or weed control at 100 ppm (Blattella germanica)

CN(C(=O)c1ccc(C#N)cc1)c1cccc(C(=O)Nc2c(Br)cc(C(F)(C(F)(F)F)C(F)(F)C(F)(F)F)cc2C(F)(F)F)c1 (stereo not drawn) [7-367]
≥ 70%: pest or weed control at 1 ppm (Spodoptera litura) | pest or weed control at 1 ppm (Plutella xylostella) | pest or weed control at 100 ppm (Musca domestica) | pest or weed control at 100 ppm (Blattella germanica)

CN(C(=O)c1ccccc1F)c1cccc(C(=O)Nc2c(I)cc(C(F)(C(F)(F)F)C(F)(F)C(F)(F)F)cc2C(F)(F)F)c1F (stereo not drawn) [7-1809]
≥ 70%: pest or weed control at 1 ppm (Spodoptera litura) | pest or weed control at 1 ppm (Choristoneura magnanima) | pest or weed control at 1 ppm (Adoxophyes honmai) | pest or weed control at 100 ppm (Laodelphax striatellus) | pest or weed control at 1 ppm (Plutella xylostella) | pest or weed control at 100 ppm (Musca domestica) | pest or weed control at 1 ppm (Helicoverpa armigera)

O=C(Nc1cccc(C(=O)Nc2c(Br)cc(C(F)(C(F)(F)F)C(F)(F)F)cc2Br)c1F)c1ccccc1F [6-1105]
≥ 70%: pest or weed control at 1 ppm (Spodoptera litura) | pest or weed control at 1 ppm (Plutella xylostella) | pest or weed control at 100 ppm (Musca domestica) | pest or weed control at 100 ppm (Blattella germanica)

N#Cc1cccc(C(=O)Nc2cccc(C(=O)Nc3c(I)cc(C(F)(C(F)(F)F)C(F)(F)F)cc3I)c2F)c1 [6-1280]
≥ 70%: pest or weed control at 1 ppm (Spodoptera litura) | pest or weed control at 100 ppm (Laodelphax striatellus) | pest or weed control at 1 ppm (Plutella xylostella) | pest or weed control at 100 ppm (Blattella germanica)

O=C(Nc1cccc(C(=O)Nc2c(Br)cc(C(F)(C(F)(F)F)C(F)(F)F)cc2C(F)(F)F)c1F)c1cccnc1Cl [6-1610]
≥ 70%: pest or weed control at 1 ppm (Spodoptera litura) | pest or weed control at 100 ppm (Laodelphax striatellus) | pest or weed control at 1 ppm (Plutella xylostella) | pest or weed control at 100 ppm (Blattella germanica)

N#Cc1ccc(C(=O)Nc2c(Br)cc(C(F)(C(F)(F)F)C(F)(F)F)cc2C(F)(F)F)c(F)c1NC(=O)c1ccccc1 [1-1925]
≥ 70%: pest or weed control at 1 ppm (Spodoptera litura) | pest or weed control at 1 ppm (Plutella xylostella) | pest or weed control at 100 ppm (Musca domestica) | pest or weed control at 100 ppm (Blattella germanica)

O=C(Nc1cccc(C(=O)Nc2c(I)cc(C(F)(C(F)(F)F)C(F)(F)C(F)(F)F)cc2C(F)(F)F)c1F)c1ccc(Cl)nc1 (stereo not drawn) [6-1851]
≥ 70%: pest or weed control at 1 ppm (Spodoptera litura) | pest or weed control at 1 ppm (Choristoneura magnanima) | pest or weed control at 10 ppm (Adoxophyes honmai; concentration 10 ppm) | pest or weed control at 100 ppm (Laodelphax striatellus) | pest or weed control at 1 ppm (Plutella xylostella) | pest or weed control at 100 ppm (Musca domestica) | pest or weed control at 1 ppm (Helicoverpa armigera)

CN(C(=O)c1cccnc1Br)c1cccc(C(=O)Nc2c(Br)cc(C(F)(C(F)(F)F)C(F)(F)F)cc2C(F)(F)F)c1 [7-305]
≥ 70%: pest or weed control at 1 ppm (Spodoptera litura) | pest or weed control at 100 ppm (Laodelphax striatellus) | pest or weed control at 1 ppm (Plutella xylostella) | pest or weed control at 100 ppm (Blattella germanica)

O=C(Nc1c(I)cc(C(F)(C(F)(F)F)C(F)(F)C(F)(F)F)cc1C(F)(F)F)c1cccc(NC(=O)c2c(F)cccc2F)c1F (stereo not drawn) [6-1830]
≥ 70%: pest or weed control at 1 ppm (Spodoptera litura) | pest or weed control at 1 ppm (Choristoneura magnanima) | pest or weed control at 1 ppm (Adoxophyes honmai) | pest or weed control at 100 ppm (Laodelphax striatellus) | pest or weed control at 1 ppm (Plutella xylostella) | pest or weed control at 100 ppm (Musca domestica) | pest or weed control at 1 ppm (Helicoverpa armigera)
